Reference: patent US20230233583A1, “USE OF PHYTOCANNABINOIDS FOR TREATING MULTIPLE MYELOMA” (priority 2020, published 2023)

System: U266
Assay: Invasion assay in co-culture of HuOB and U266
Assay type: cell-based, human
Conditions: 24 hours; for AVERAGE OF CELLS/square (MM cells that invaded the Matrigel): U266 + HuOB co-culture, CBG, CBC, CBN 12.5 μM, CBDV 6.25 μM or 25 μM and 12.5 μM, untreated U266 + HuOB 14.2 ± 0.9; for effect on MM cell invasion, in words: U266 in co-culture with HuOB
Description: Invasion assay: HuOB cells (1.5×10^4) were plated on the surface of Matrigel in a BioCoat™ Matrigel® Invasion Chamber, 8.0 μm PET Membrane (Coming®, cod. 354480) and incubated for two days. After, U266 and RPMI (2.5×10^4) were pre-stained with Calcein (1 μM) for two hours, then treated with CBG (12.5 μM), CBC (12.5 μM), CBN (12.5 μM) and CBDV (6.25 μM) and added in the chambers. MM cells with HuOB, untreated, were used as invasion positive control, MM cells without HuOB cells were used as negative control. After 24 hours, the number of MM cells that invaded the Matrigel were analysed via fluorescent microscope. Eight 10× sections images were counted for each chamber.
Invasion assay in co-culture of HuOB and MM cell lines: This study evaluated the effect of phytocannabinoids in reducing the invasion of MM cell lines toward HuOB. HuOB were plated on the surface of Matrigel in the BioCoat™ Matrigel® Invasion Chamber, 8.0 μm PET Membrane (Corning®, cod. 354480) and incubated for two days. After, U266 or RPMI were pre-stained with Calcein (10 μM) for two hours, then treated with CBG (25 μM), CBC (25 μM), CBN (25 μM) and CBDV (12.5 μM) and added in the chambers. MM cells with HuOB, untreated, were used as an invasion positive control, MM cells without HuOB cells were used as a negative control. After 24 hours, the number of MM cells that invaded the Matrigel were analysed via fluorescent microscope. Eight 10× sections images were counted for each chamber.

Row | SMILES | AVERAGE OF CELLS/square (MM cells that invaded the Matrigel) [CELLS/square] | effect on MM cell invasion, in words
1 | C=C(C)[C@@H]1CCC(C)=C[C@H]1c1c(O)cc(CCC)cc1O [CBDV, 2-[(1R,6R)-3-methyl-6-prop-1-en-2-ylcyclohex-2-en-1-yl]-5-propylbenzene-1,3-diol] | 11.2 ± 1.1 | –
2 | CCCCCc1cc(O)c(C/C=C(\C)CCC=C(C)C)c(O)c1 [CBG, 2-[(2E)-3,7-dimethylocta-2,6-dienyl]-5-pentylbenzene-1,3-diol] | 3.2 ± 0.2 | higher activity
3 | CCCCCc1cc(O)c2c(c1)OC(C)(CCC=C(C)C)C=C2 (stereo not drawn) [CBC, 2-methyl-2-(4-methylpent-3-enyl)-7-pentylchromen-5-ol] | 12.5 ± 1.1 | –
4 | CCCCCc1cc(O)c2c(c1)OC(C)(C)c1ccc(C)cc1-2 [CBN, 6,6,9-trimethyl-3-pentylbenzo[c]chromen-1-ol] | 7.0 ± 0.2 | higher activity
